Values of other authors, collected in patent US6645392B2, “Method of removing wrinkles from fabric” (The Procter & Gamble Company, priority 2000, dated 2003).

Settings: for water solubility: in water

Row | water solubility | SMILES | solubility in water
1 | about 2.67% | OCCOc1ccccc1 [2-phenoxyethanol] | –
2 | about 2% | OCCc1ccccc1 [2-phenylethanol] | –
3 | about 0.46% | O=[N+]([O-])C1(Br)COCOC1 [Bronidox L, 5-bromo-5-nitro-1,3-dioxane] | –
4 | about 25% | O=[N+]([O-])C(Br)(CO)CO [Bronopol, 2-bromo-2-nitropropane-1,3-diol] | –
5 | more than 50% | CC1(C)C(=O)N(CO)C(=O)N1CO [DMDM hydantoin, 1,3-bis(hydroxymethyl)-5,5-dimethyl-2,4-imidazolidinedione] | –
6 | – | ClC=CC[N+]12CN3CN(CN(C3)C1)C2.[Cl-] [Dowicil 200, 1-(3-Chlorallyl)-3,5,7-triaza-1-azoniaadamantane chloride] | freely soluble in water
7 | about 4% | OCc1ccccc1 [benzyl alcohol] | –
8 | about 1.8% | [H]/N=C(\N/C(=N/[H])NCCCCCCNC(=N)NC(=N)Nc1ccc(Cl)cc1)Nc1ccc(Cl)cc1 [chlorhexidine diacetate, 1,1′-hexamethylene bis(5-(p-chlorophenyl)biguanide), reference compound] | –
9 | about 70% | [H]/N=C(\N/C(=N/[H])NCCCCCCNC(=N)NC(=N)Nc1ccc(Cl)cc1)Nc1ccc(Cl)cc1 [chlorhexidine digluconate, 1,1′-hexamethylene bis(5-(p-chlorophenyl)biguanide), reference compound] | –
10 | about 0.8% | CC(C)(O)C(Cl)(Cl)Cl [chlorobutanol, 1,1,1-Trichloro-2-methylpropan-2-ol] | –

Row | SMILES | water solubility | solubility in water
11 | [Na+].[O-][n+]1ccccc1[S-] [sodium pyrithione] | about 50% | –
